From publication PMC12084297, “Cytoplasmic connexin43-microtubule interactions promote glioblastoma stem-like cell maintenance and tumorigenicity” (Cell Death & Disease, 2025) come the findings set out here.

For one series, the system named is Notch1. As to the kind of experiment: Notch1 protein expression, immunoblot, VTC-001 GSCs. The class given is cell-based, human. Particulars: 50 μM, 24 h. As to the method:
Cells were lysed in RIPA buffer (0.1% sodium dodecyl sulphate, 50 mM Tris pH 7.4, 150 mM NaCl, 1 mM EDTA, 1% Triton X-100, 1% deoxycholic acid, 200 μM Na3VO4, and 1 mM NaF) supplemented with Halt^TM Protease and Phosphatase Inhibitor Cocktail (Thermo Fisher). Lysates were sonicated prior to centrifugation at 4 °C for 20 min at 10,000 x g. Protein concentration was quantified using the DC protein assay (Bio-Rad Laboratories) and a standard curve obtained with increasing concentrations of Bovine Serum Albumin (BSA; Fisher Scientific). Protein samples were normalized to 20 μg total protein per lane and resolved by SDS-PAGE electrophoresis. 4X Bolt LDS sample buffer supplemented with 400 mM DTT (final concentration 1X Bolt LDS with 100 mM DTT) was added to samples before heating at 70 °C for 10 min. SDS-PAGE was run using NuPAGE Bis-Tris 4%–12% gradient gels (Thermo Fisher) with MES or MOPS running buffer according to manufacturer’s instructions. Spectra™ Multicolor Protein Ladder (Thermo Fisher) or Precision Plus Protein™ Kaleidoscope™ Prestained Protein Standards (Bio-Rad Laboratories) were included as protein ladders on the same gels. […] Membranes were imaged on a ChemiDoc™ imaging system, and analyzed with Image Lab software (Bio-Rad Laboratories). […]
In general terms: In western blotting, separated proteins are transferred to a membrane and probed.

A further series relates to VTC-001 GSCs. As to the kind of experiment: MTS viability, VTC-001 GSCs. In kind it is cell-based, human. The conditions noted are these: 4 days. As to the method: (§1) Cells were plated in 96-well plates (2000–5000 cells per well) and treated the following day with TMZ (10, 50, or 100 μM), antennapedia, JM2-scrambled, or JM2 (10, 50, or 100 μM). After 4 days, cell viability was monitored following addition of MTS reagent (Promega) according to manufacturer’s instructions. The absorbance at 490 nm was measured using a SpectraMax i3 or iD3 microplate reader (Molecular Devices). For the caspase 3/7 activity assay, cells were plated in 96-well plates (2000 cells per well) and treated with TMZ or peptides as described above. The activity of caspase 3/7 was measured after 48 h using the Caspase-Glo® 3/7 assay (Promega) following the manufacturer’s instructions. Fold change of caspase 3/7 activity was defined as the ratio of caspase 3/7 luminescence in treated cells compared to controls.

The test system of another series is Notch1 mRNA. Kind of series: Notch1 mRNA by RT-qPCR, VTC-037 GSCs. The conditions noted are these: 50 μM, 24 h. In kind it is cell-based, human. The method, then:
RNA was extracted using the PureLink^TM RNA mini extraction kit (Thermo Fisher) and on-column DNA digestion was completed using PureLink^TM DNase according to the manufacturer’s instructions. RNA was reverse transcribed to generate cDNA using the iScript^TM Reverse Transcription SuperMix for RT-qPCR kit (Bio-Rad Laboratories). Real-time PCR was performed using the SYBR select Master Mix for CFX (Thermo Fisher) in hard-shell 96-well PCR plates (Bio-Rad Laboratories) on a CFX Connect Real Time System (Bio-Rad Laboratories). Primer sequences used were: hNOTCH1_Fwd: 5’-CGCACAAGGTGTCTTCCAG-3’; hNOTCH1_Rev: 5’-CGGCGTGTGAGTTGATGA-3’; hHES1_Fwd: 5’-GGCTGGAGAGGCGGCTAA-3’; hHES1_Rev: 5’-[…]-3’; hHEY1_Fwd: 5’-[…]-3’; hHEY1_Rev: 5’-[…]-3’.

Series [1] relates to VTC-034 GSCs. As to the kind of experiment: Cellular uptake by NeutrAvidin-HRP blotting, VTC-034 GSCs. The class given is in vitro ADME, human. The source says: JM2 peptide includes the Cx43 C-terminal amino acids 231–245 that encompass the tubulin binding sequence (VFFKGVKDRVKGRSD). A control peptide, JM2-scrambled, was generated by random re-assembly of the same residues (GSDVFKRKFVDRKVG). Both peptides contain a 16-amino acid antennapedia internalization sequence (RQPKIWFPNRRKPWKK) and are N-terminally biotinylated. Lyophilized peptides were obtained from Peptron, Inc. (South Korea) with purity > 95%, reconstituted in water or in PBS at a concentration of 10 mM, and aliquots were stored at −80 °C freezer. Reconstituted peptides were added to the cell culture medium at different concentrations for times indicated. […]
Cells were lysed in RIPA buffer (0.1% sodium dodecyl sulphate, 50 mM Tris pH 7.4, 150 mM NaCl, 1 mM EDTA, 1% Triton X-100, 1% deoxycholic acid, 200 μM Na3VO4, and 1 mM NaF) supplemented with Halt^TM Protease and Phosphatase Inhibitor Cocktail (Thermo Fisher). […] Protein concentration was quantified using the DC protein assay (Bio-Rad Laboratories) and a standard curve obtained with increasing concentrations of Bovine Serum Albumin (BSA; Fisher Scientific). […] Membranes were imaged on a ChemiDoc™ imaging system, and analyzed with Image Lab software (Bio-Rad Laboratories). […]

Series [2] deals with normal human astrocytes. As to the kind of experiment: Caspase 3/7 activity, human astrocytes. The class given is cell-based. Particulars: 100 μM, 2 days. As to the method:
as §1

Series [3] relates to normal human astrocytes. As to the kind of experiment: MTS viability, human astrocytes. Particulars: 100 μM, 4 days. The class given is cell-based. The method, then: as §1
The subject of series [4] is VTC-034 GSCs. Kind of series: MTS viability, VTC-034 GSCs. The class given is cell-based, human. Particulars: VTC-034 adherent GSCs, 10, 50 or 100 μM, 4 days. The method, then:
as §1

“Also recorded” adds a separate entry of the source.

As to VFFKGVKDRVKGRSD [JM2], the Notch1 protein expression result in the series with Notch1 is “significantly decreased Notch1 expression at the protein level”. Further, in the series with VTC-001 GSCs (VTC-001 adherent GSCs, 100 μM), the “GSC viability with JM2 alone in combination experiment (MTS)” value was “significantly decreased GSC viability”. Further, the “GSC survival (MTS)” value with VTC-001 GSCs (VTC-001 adherent GSCs, 10, 50 or 100 μM) is “significantly decreased VTC-001, VTC-034, and VTC-037 GSC survival when cultured as adherent cells in a dose-dependent manner”; in the series with VTC-034 GSCs [4] it was “significantly decreased VTC-001, VTC-034, and VTC-037 GSC survival when cultured as adherent cells in a dose-dependent manner”. For the same sequence, in the series with Notch1 mRNA, the “Notch1 mRNA level” value is given as “not affected at the transcription level”. Also, the “Cellular uptake over time” value with VTC-034 GSCs [1] (50 μM, different times up to 48 h, NeutrAvidin-HRP blot) was “apparent after 1 h, and sustained for 24 h before JM2 signal in GSCs decreased at 48 h”. Besides, in the series on VTC-034 GSCs [1] (different concentrations, 24 h, NeutrAvidin-HRP blot of biotin-tagged peptide), the “Cellular uptake at increasing concentrations” value was “Cellular uptake of JM2 at increasing concentrations was confirmed”. The “Caspase 3/7 activity in normal human astrocytes” value in the series on normal human astrocytes [2] is given as “No effect on caspase 3/7”. Moreover, the “Human astrocyte viability (MTS)” value in the series with normal human astrocytes [3] is recorded as “did not observe a decrease in human astrocyte viability, even at higher JM2 concentrations; also recorded: no toxic effect of JM2 on normal human astrocytes in vitro”.
